BindingDB's records for doi:10.1016/j.bmcl.2007.04.110 (Vernalis (R&D), 2007)

Target: Cyclin-A2/Cyclin-dependent kinase 2 (Homo sapiens, UniProt P24941)
Experiment: CDK Inhibition Assay
Settings: pH 7.5; 22 °C
Description: In vitro kinase assay using purified CDK2/Cyclin A was incubated at room temperature with substrate, and test compounds in the presence of 100 uM ATP/ [gamma-33P] ATP. Assays were performed in 96-well polypropylene plates. 33P incorporation into substrate was measured using a scintillation counter.

IC50: 0.76 µM
SMILES: NS(=O)(=O)c1ccc(-c2ccc(/C=c3\sc4nc5ccccc5n4c3=O)o2)cc1 [4-(5-{[(4Z)-3-oxo-5-thia-2,7-diazatricyclo[6.4.0.0^{2,6}]dodeca-1(12),6,8,10-tetraen-4-ylidene]methyl}furan-2-yl)benzene-1-sulfonamide]
